# Test results: ChEMBL document CHEMBL6178012, “Discovery of RP-1664: A First-in-Class Orally Bioavailable, Selective PLK4 Inhibitor” (J Med Chem, 2025)
# Experiments:
# [1] = test system: MCF7; assay: cells; conditions: Homo sapiens
# [2] = in vivo; conditions: female, CD-1, mouse, iv, 1 mg/kg
# [3] = in vitro; conditions: human, cryopreserved hepatocytes
# [4] = in vitro; conditions: human, Caco-2
# [5] = in vitro; conditions: human, Caco-2; remark: listed apart in the source
# [6] = in vivo; conditions: female, CD-1, mouse, po, 5 mg/kg
# [7] = in vivo; conditions: cynomolgus monkey, po, 1.25 mg/kg
# [8] = in vitro; conditions: dog, liver microsomes
# [9] = in vitro; conditions: human, liver microsomes
# [10] = in vivo; conditions: male, Sprague-Dawley, rat, po
# [11] = in vitro; conditions: dog, cryopreserved hepatocytes
# [12] = in vitro; conditions: mouse, cryopreserved hepatocytes
# [13] = target: T1, Serine/threonine-protein kinase PLK4 (Homo sapiens) (UniProt O00444); conditions: Mus musculus; SCID-Beige; CAL-148; dose lower 6.0 mg/kg, dose upper […], route po, time 7.0 day
# T1 sequence (whole entry): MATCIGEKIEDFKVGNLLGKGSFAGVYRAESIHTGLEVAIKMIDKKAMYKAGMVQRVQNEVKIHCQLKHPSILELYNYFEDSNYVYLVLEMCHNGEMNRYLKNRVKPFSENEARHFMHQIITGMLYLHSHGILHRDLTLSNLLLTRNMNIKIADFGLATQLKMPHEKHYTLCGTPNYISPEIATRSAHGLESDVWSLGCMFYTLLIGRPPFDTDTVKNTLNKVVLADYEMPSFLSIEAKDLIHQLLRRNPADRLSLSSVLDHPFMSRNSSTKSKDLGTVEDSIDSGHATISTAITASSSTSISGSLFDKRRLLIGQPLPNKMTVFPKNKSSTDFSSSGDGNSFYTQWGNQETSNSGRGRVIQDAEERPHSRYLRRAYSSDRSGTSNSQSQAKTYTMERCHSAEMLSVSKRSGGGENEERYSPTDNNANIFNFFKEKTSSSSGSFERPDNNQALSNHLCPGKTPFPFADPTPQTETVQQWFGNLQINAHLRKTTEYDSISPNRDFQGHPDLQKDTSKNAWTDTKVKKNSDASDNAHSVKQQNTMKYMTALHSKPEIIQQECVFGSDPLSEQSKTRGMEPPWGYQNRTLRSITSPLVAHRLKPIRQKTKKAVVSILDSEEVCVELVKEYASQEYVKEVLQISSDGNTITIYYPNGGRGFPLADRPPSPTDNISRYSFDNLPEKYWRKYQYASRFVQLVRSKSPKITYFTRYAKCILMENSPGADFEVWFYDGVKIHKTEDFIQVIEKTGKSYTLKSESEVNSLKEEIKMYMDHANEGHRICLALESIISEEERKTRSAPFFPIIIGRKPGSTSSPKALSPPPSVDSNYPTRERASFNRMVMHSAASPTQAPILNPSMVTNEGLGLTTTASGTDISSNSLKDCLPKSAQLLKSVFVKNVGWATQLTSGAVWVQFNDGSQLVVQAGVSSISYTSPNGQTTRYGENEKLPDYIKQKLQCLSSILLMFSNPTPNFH
# [14] = in vitro; conditions: rat, liver microsomes
# [15] = in vivo; conditions: cynomolgus monkey, iv, 0.5 mg/kg
# [16] = in vitro; conditions: rat, cryopreserved hepatocytes
# [17] = in vitro; conditions: rhesus monkey, cryopreserved hepatocytes
# [18] = target: T1, Serine/threonine-protein kinase PLK4 (Homo sapiens); conditions: Mus musculus; SCID-Beige; CAL-148; dose lower 6.0 mg/kg, dose upper […], route po, time 4.0 day
# [19] = in vitro; conditions: rhesus monkey, liver microsomes
# [20] = in vitro; conditions: mouse, liver microsomes
# [21] = in vivo; conditions: male, Beagle, dog, po, 1.15 mg/kg
# [22] = in vivo; conditions: male, Beagle, dog, iv, 0.5 mg/kg
# [23] = in vitro; conditions: dog, MDCK
smiles,measurement,setting,value
Cc1cc(Nc2nc(N(C)c3c(F)cc(S(C)(=O)=O)cc3F)nc(-c3cc(C(C)(C)O)n(C)n3)c2C2CC2)n[nH]1,EC50,[1],23 nM
same,clearance at 24 h,[2],12 mL/min/kg
same,hepatocyte CLint at 1 µM,[3],6 µL/min/1e6 cells
same,"efflux ratio at […], 10 µM",[4],6.9
same,"Papp at […], 10 µM",[5],7.8 ×10⁻⁶ cm/s
same,bioavailability at 24 h,[6],55%
Cc1cc(Nc2nc(N(C)c3c(F)cc(S(C)(=O)=O)cc3F)nc(-c3cn(C)cn3)c2C2CC2)n[nH]1,bioavailability at 24 h,[7],96%
same,microsomal CLint at 1 µM,[8],< 7.7 µL/min/mg
same,EC50,[1],51 nM
same,clearance at 24 h,[2],11 mL/min/kg
same,microsomal CLint at 1 µM,[9],< 7.7 µL/min/mg
same,bioavailability at 24 h,[10],28%
same,hepatocyte CLint at 1 µM,[3],< 3.8 µL/min/1e6 cells
same,"efflux ratio at […], 10 µM",[4],8.1
same,hepatocyte CLint at 1 µM,[11],< 3.8 µL/min/1e6 cells
same,hepatocyte CLint at 1 µM,[12],< 3.8 µL/min/1e6 cells
same,"Papp at […], 10 µM",[5],4.6 ×10⁻⁶ cm/s
same,inhibition,[13],Dose-dependent-effect
same,microsomal CLint at 1 µM,[14],< 7.7 µL/min/mg
same,clearance at 24 h,[15],14 mL/min/kg
same,hepatocyte CLint at 1 µM,[16],< 3.8 µL/min/1e6 cells
same,hepatocyte CLint at 1 µM,[17],< 3.8 µL/min/1e6 cells
same,inhibition,[18],Dose-dependent-effect
same,microsomal CLint at 1 µM,[19],< 7.7 µL/min/mg
same,microsomal CLint at 1 µM,[20],< 7.7 µL/min/mg
same,bioavailability at 24 h,[21],98%
same,bioavailability at 24 h,[6],≥ 100%
same,clearance at 24 h,[22],30 mL/min/kg
Cc1cc(Nc2nc(N(C)c3c(F)cc(S(C)(=O)=O)cc3F)nc(-c3cnn(C)c3CO)c2C2CC2)n[nH]1,EC50,[1],140 nM
same,clearance at 24 h,[2],15 mL/min/kg
same,hepatocyte CLint at 1 µM,[3],6 µL/min/1e6 cells
same,bioavailability at 24 h,[6],23%
COc1c(Nc2cc(C)[nH]n2)nc(Sc2ccc(S(C)(=O)=O)cc2F)nc1N1CCCCC1,"Papp A→B at 2 h, 1 µM",[23],8.1 ×10⁻⁶ cm/s
same,microsomal CLint at 1 µM,[20],47 µL/min/mg
Cc1cc(Nc2nc(N(C)c3c(F)cc(S(C)(=O)=O)cc3F)nc(N3CCOCC3)c2C2CC2)n[nH]1,EC50,[1],150 nM
same,hepatocyte CLint at 1 µM,[3],50.9 µL/min/1e6 cells
Cc1cc(Nc2nc(N(C)c3cc(F)c(S(C)(=O)=O)cc3F)nc(-c3cnn(C)c3)c2C2CC2)n[nH]1,EC50,[1],160 nM
same,hepatocyte CLint at 1 µM,[3],42 µL/min/1e6 cells
Cc1cc(Nc2nc(Sc3ccc(S(C)(=O)=O)cc3F)nc(-c3cnn(C)c3)c2C2CC2)n[nH]1,EC50,[1],1700 nM
COc1c(Nc2cc(C)[nH]n2)nc(Sc2ccc(S(=O)(=O)Cc3cccc([N+](=O)[O-])c3F)cc2F)nc1N1CCCCC1,"Papp A→B at 2 h, 1 µM",[23],0.1 ×10⁻⁶ cm/s
same,microsomal CLint at 1 µM,[20],> 416 µL/min/mg
Cc1cc(Nc2nc(N(C)c3c(F)cc(S(C)(=O)=O)cc3F)nc(-c3cnn(C)c3)c2C2CC2)n[nH]1,EC50,[1],65 nM
same,clearance at 24 h,[2],7 mL/min/kg
same,hepatocyte CLint at 1 µM,[3],5.3 µL/min/1e6 cells
same,"efflux ratio at […], 10 µM",[4],1.1
same,"Papp at […], 10 µM",[5],28 ×10⁻⁶ cm/s
same,bioavailability at 24 h,[6],> 100%
Cc1cc(Nc2nc(Oc3ccc(S(C)(=O)=O)cc3F)nc(-c3cnn(C)c3)c2C2CC2)n[nH]1,EC50,[1],2500 nM
CN(c1nc(Nc2cc(C(F)F)[nH]n2)c(C2CC2)c(-c2cnn(C)c2)n1)c1c(F)cc(S(C)(=O)=O)cc1F,EC50,[1],860 nM
Cc1cc(Nc2nc(N(C)c3ccc(S(C)(=O)=O)cc3Cl)nc(-c3cnn(C)c3)c2C2CC2)n[nH]1,EC50,[1],180 nM
Cc1cc(Nc2nc(N(C)c3c(F)cc(S(C)(=O)=O)cc3F)nc(-c3cn4c(n3)COCC4)c2C2CC2)n[nH]1,EC50,[1],35 nM
same,clearance at 24 h,[2],3 mL/min/kg
same,hepatocyte CLint at 1 µM,[3],< 3.8 µL/min/1e6 cells
same,"efflux ratio at […], 10 µM",[4],4.4
same,"Papp at […], 10 µM",[5],12 ×10⁻⁶ cm/s
same,bioavailability at 24 h,[6],40%
Cc1cc(Nc2nc(N(C)c3c(F)cc(S(C)(=O)=O)cc3F)nc(-c3cn(C)c(C4CC4)n3)c2C2CC2)n[nH]1,EC50,[1],34 nM
same,clearance at 24 h,[2],9 mL/min/kg
same,hepatocyte CLint at 1 µM,[3],7.5 µL/min/1e6 cells
same,"efflux ratio at […], 10 µM",[4],2.5
same,"Papp at […], 10 µM",[5],28 ×10⁻⁶ cm/s
same,bioavailability at 24 h,[6],> 100%
C#Cc1cc(Nc2nc(N(C)c3c(F)cc(S(C)(=O)=O)cc3F)nc(-c3cnn(C)c3)c2C2CC2)n[nH]1,EC50,[1],230 nM
same,hepatocyte CLint at 1 µM,[3],20.4 µL/min/1e6 cells
Cc1cc(Nc2nc(N(C)c3ccc(S(=O)(=O)C4CC4)cc3F)nc(-c3cnn(C)c3)c2C2CC2)n[nH]1,EC50,[1],210 nM
same,hepatocyte CLint at 1 µM,[3],8.2 µL/min/1e6 cells
Cc1cc(Nc2nc(N(C)c3c(F)cc(S(C)(=O)=O)cc3F)nc(-c3ccnnc3)c2C2CC2)n[nH]1,EC50,[1],92 nM
same,hepatocyte CLint at 1 µM,[3],51.5 µL/min/1e6 cells
COc1c(Nc2cc(C)[nH]n2)nc(Sc2ccc(S(C)(=O)=O)cc2F)nc1N1CCOCC1,"Papp A→B at 2 h, 1 µM",[23],14 ×10⁻⁶ cm/s
same,microsomal CLint at 1 µM,[20],31 µL/min/mg
Cc1cc(Nc2nc(N(C)c3c(F)cc(S(C)(=O)=O)c(F)c3F)nc(-c3cnn(C)c3)c2C2CC2)n[nH]1,EC50,[1],67 nM
Cc1cc(Nc2nc(Nc3ccc(S(C)(=O)=O)cc3F)nc(-c3cnn(C)c3)c2C2CC2)n[nH]1,EC50,[1],1300 nM
CN(c1nc(Nc2cc(C3CC3)[nH]n2)c(C2CC2)c(-c2cnn(C)c2)n1)c1c(F)cc(S(C)(=O)=O)cc1F,EC50,[1],57 nM
same,hepatocyte CLint at 1 µM,[3],12 µL/min/1e6 cells
Cc1cc(Nc2nc(N(C)c3c(F)cc(S(C)(=O)=O)cc3F)nc(-c3cn(C)nc3CO)c2C2CC2)n[nH]1,hepatocyte CLint at 1 µM,[3],12.8 µL/min/1e6 cells
COc1c(Nc2cc(C)[nH]n2)nc(Sc2ccc(S(C)(=O)=O)cc2F)nc1-c1cnn(C)c1,EC50,[1],890 nM
same,microsomal CLint at 1 µM,[20],< 7.7 µL/min/mg
Cc1cc(Nc2nc(N(C)c3ccc(S(C)(=O)=O)cc3F)nc(-c3cnn(C)c3)c2C2CC2)n[nH]1,EC50,[1],430 nM
Cc1cc(Nc2nc(N(C)c3c(F)cc(S(N)(=O)=O)cc3F)nc(-c3cnn(C)c3)c2C2CC2)n[nH]1,hepatocyte CLint at 1 µM,[3],19.4 µL/min/1e6 cells
COc1c(Nc2cc(C)[nH]n2)nc(Sc2ccc(S(C)(=O)=O)cc2)nc1-c1cnn(C)c1,microsomal CLint at 1 µM,[20],< 7.7 µL/min/mg
Cc1cc(Nc2nc(N(C)c3c(F)cc(S(C)(=O)=O)cc3F)nc(-c3cn(C)nc3C)c2C2CC2)n[nH]1,EC50,[1],83 nM
same,clearance at 24 h,[2],10 mL/min/kg
same,hepatocyte CLint at 1 µM,[3],50.1 µL/min/1e6 cells
same,bioavailability at 24 h,[6],> 100%
